Data published in ChEMBL document CHEMBL5465560, “Selectivity Literature for EUbOPEN Chemogenomic Library” (2024).
One block for each molecule: values may come before it.

Tests used:
[1] = molecular target: T1, Serine/threonine-protein kinase TAO2 (Homo sapiens) (UniProt Q9UL54); experiment: Selectivity interaction (ActivX KiNativ screen (ex vivo kinase selectivity in human PBMCs)) EUB0001619a TAOK2; assay type: cell-based; settings: PBMC, at 1 µM
T1 sequence (whole entry): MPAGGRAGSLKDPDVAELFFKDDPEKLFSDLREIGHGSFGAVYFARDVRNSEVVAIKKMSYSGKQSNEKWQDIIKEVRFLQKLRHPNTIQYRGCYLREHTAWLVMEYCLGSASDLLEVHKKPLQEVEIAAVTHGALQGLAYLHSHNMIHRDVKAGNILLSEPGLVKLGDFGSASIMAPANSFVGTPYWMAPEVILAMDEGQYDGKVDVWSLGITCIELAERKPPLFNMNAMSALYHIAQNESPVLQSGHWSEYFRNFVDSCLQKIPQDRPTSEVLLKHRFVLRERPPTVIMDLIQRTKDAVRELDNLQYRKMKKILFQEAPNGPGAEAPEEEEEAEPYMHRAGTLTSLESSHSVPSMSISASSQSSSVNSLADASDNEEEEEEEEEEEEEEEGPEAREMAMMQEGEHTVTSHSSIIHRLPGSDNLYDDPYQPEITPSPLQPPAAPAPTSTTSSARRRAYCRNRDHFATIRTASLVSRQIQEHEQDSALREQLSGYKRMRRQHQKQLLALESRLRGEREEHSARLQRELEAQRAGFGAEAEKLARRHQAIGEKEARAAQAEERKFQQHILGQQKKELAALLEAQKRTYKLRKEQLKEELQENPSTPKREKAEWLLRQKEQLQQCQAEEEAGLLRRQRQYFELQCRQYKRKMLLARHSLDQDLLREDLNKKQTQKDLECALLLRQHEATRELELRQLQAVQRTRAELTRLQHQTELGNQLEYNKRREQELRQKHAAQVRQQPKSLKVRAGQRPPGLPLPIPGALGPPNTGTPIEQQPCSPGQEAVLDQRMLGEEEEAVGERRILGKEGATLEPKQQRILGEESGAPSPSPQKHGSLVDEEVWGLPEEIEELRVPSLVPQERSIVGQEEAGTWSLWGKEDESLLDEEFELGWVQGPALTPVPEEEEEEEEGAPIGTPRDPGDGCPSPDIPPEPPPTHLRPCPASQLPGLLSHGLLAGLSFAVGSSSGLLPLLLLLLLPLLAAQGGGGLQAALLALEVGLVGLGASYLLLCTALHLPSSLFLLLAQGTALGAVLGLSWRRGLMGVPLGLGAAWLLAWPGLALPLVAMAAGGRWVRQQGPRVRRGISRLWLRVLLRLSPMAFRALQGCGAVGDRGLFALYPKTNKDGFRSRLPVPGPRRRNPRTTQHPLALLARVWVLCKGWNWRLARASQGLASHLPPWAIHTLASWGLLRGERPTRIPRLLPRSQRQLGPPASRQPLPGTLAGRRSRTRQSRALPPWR

[2] = molecular target: Ephrin type-A receptor 5 (Homo sapiens) (UniProt P54756); experiment: Selectivity interaction (Kinase panel (DSF assay)) EUB0001558a EPHA5
[3] = molecular target: Bone morphogenetic protein receptor type-1A (Homo sapiens, UniProt P36894); experiment: Selectivity interaction (KinomeScan (DiscoverX)) EUB0000595a BMPR1A; settings: at 10 µM
[4] = molecular target: Tyrosine-protein kinase Srms (Homo sapiens) (UniProt Q9H3Y6); experiment: Selectivity interaction (Kinase panel (Invitrogen)) EUB0000639a SRMS; settings: at 200 nM
[5] = molecular target: Macrophage colony-stimulating factor 1 receptor (Homo sapiens) (UniProt P07333); experiment: Selectivity interaction (KinomeScan (DiscoverX)) EUB0000229b CSF1R; settings: at 10 µM
[6] = molecular target: Tyrosine-protein kinase ABL2 (Homo sapiens, UniProt P42684); experiment: Selectivity interaction (KinomeScan (DiscoverX)) EUB0000092b ABL2; settings: at 10 µM
[7] = molecular target: Bromodomain testis-specific protein (Homo sapiens) (UniProt Q58F21); experiment: Selectivity interaction (Human bromodomain panel (DSF assay)) EUB0000233b BRDT
[8] = molecular target: Serine/threonine-protein kinase 38-like (Homo sapiens) (UniProt Q9Y2H1); experiment: Selectivity interaction (LanthaScreen Eu Kinase Binding Assay) EUB0001632a STK38L; settings: at 10 µM
[9] = molecular target: T2, Kinase suppressor of Ras 2 (Homo sapiens) (UniProt Q6VAB6); experiment: Selectivity interaction (Kinase panel (Z-LYTE Assay)) EUB0001632a KSR2; settings: at 10 µM
T2 sequence (whole entry): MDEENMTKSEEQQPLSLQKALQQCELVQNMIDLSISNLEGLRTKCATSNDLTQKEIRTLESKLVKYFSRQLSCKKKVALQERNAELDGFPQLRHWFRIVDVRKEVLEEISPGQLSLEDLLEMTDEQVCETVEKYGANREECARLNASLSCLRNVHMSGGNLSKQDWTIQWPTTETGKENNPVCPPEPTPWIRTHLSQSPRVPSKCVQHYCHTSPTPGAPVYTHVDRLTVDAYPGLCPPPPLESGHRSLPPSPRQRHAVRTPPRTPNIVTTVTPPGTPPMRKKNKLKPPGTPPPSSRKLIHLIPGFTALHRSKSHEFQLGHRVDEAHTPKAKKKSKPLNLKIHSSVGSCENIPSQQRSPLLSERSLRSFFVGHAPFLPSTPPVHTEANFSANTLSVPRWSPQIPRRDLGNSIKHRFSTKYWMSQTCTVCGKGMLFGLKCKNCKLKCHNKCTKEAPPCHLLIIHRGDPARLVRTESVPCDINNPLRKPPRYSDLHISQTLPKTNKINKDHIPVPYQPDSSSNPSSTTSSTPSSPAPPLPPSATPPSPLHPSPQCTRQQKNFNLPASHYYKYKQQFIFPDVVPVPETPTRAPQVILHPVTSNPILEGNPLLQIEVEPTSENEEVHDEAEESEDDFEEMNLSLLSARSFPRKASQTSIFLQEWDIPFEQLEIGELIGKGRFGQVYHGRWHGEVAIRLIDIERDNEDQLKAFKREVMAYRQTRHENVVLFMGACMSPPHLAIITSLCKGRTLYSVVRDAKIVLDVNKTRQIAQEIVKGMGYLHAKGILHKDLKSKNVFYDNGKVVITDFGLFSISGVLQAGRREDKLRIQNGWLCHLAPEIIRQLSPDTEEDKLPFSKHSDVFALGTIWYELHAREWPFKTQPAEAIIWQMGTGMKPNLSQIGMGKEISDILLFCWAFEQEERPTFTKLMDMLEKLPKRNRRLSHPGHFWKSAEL

Sequence of Tyrosine-protein kinase Srms (Homo sapiens) (Q9H3Y6 whole entry): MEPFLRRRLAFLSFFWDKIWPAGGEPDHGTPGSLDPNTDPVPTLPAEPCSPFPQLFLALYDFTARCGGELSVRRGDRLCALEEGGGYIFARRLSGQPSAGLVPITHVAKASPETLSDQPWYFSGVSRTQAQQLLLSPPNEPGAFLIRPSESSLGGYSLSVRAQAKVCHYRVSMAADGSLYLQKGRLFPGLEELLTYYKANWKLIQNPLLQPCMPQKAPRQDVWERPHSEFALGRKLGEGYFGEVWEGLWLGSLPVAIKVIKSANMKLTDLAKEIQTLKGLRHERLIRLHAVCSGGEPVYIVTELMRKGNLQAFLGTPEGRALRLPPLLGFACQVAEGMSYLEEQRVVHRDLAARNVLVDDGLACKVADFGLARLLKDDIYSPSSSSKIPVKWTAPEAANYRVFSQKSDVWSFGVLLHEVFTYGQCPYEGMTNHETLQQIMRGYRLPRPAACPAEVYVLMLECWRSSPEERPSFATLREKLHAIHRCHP
Sequence of Serine/threonine-protein kinase 38-like (Homo sapiens) (Q9Y2H1 2-464 limits assumed): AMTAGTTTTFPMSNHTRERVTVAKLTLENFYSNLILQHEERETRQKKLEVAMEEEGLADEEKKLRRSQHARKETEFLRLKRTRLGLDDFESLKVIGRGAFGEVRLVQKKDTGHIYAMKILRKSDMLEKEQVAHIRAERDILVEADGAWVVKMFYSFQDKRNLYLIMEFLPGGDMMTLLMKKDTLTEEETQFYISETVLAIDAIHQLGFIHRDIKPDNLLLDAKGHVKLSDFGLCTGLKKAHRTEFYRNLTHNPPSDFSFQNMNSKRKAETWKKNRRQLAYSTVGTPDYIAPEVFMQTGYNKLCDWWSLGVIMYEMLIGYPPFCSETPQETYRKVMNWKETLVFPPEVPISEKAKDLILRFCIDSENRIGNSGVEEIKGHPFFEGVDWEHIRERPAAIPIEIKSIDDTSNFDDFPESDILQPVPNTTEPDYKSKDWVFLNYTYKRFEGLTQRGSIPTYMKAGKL
Sequence of Bone morphogenetic protein receptor type-1A (P36894 whole entry): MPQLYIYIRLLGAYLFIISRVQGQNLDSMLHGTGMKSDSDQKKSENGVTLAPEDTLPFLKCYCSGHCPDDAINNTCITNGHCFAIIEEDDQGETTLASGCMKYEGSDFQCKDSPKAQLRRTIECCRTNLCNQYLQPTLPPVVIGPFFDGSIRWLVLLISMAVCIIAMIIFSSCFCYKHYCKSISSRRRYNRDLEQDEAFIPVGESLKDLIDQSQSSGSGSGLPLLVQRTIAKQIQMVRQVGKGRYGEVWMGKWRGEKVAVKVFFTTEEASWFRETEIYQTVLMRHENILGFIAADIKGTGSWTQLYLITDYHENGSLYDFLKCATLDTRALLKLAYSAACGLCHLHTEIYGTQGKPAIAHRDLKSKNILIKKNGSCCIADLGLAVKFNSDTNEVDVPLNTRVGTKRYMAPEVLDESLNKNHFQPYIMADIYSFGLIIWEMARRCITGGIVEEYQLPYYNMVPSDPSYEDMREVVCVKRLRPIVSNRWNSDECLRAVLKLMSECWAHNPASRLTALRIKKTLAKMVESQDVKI
Sequence of Macrophage colony-stimulating factor 1 receptor (Homo sapiens) (P07333 whole entry): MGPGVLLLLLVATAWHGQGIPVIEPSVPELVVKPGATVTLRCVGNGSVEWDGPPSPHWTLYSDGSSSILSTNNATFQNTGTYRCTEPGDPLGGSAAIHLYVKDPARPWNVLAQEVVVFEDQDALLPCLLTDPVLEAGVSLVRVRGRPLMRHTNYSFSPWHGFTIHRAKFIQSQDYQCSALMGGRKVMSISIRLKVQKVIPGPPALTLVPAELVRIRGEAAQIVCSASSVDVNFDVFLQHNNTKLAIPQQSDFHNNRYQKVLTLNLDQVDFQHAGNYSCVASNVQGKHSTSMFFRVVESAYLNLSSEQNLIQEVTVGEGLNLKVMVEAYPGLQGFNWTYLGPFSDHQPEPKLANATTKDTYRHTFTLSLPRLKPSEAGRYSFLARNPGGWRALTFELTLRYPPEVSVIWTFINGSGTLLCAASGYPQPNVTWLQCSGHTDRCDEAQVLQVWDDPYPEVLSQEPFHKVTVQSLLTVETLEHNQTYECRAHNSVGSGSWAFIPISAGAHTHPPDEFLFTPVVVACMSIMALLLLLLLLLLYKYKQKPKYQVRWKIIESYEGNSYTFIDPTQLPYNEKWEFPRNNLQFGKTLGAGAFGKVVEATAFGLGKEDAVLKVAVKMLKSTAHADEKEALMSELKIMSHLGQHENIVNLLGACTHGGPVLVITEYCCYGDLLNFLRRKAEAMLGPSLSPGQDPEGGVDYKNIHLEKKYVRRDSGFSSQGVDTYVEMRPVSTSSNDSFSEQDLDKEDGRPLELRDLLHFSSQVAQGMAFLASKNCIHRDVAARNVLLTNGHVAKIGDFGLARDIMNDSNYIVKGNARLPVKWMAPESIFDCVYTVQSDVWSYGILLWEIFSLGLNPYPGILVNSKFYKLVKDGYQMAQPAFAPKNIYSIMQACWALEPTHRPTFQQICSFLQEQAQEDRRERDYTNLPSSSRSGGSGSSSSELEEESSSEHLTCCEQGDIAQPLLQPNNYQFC
Sequence of Tyrosine-protein kinase ABL2 (P42684 whole entry): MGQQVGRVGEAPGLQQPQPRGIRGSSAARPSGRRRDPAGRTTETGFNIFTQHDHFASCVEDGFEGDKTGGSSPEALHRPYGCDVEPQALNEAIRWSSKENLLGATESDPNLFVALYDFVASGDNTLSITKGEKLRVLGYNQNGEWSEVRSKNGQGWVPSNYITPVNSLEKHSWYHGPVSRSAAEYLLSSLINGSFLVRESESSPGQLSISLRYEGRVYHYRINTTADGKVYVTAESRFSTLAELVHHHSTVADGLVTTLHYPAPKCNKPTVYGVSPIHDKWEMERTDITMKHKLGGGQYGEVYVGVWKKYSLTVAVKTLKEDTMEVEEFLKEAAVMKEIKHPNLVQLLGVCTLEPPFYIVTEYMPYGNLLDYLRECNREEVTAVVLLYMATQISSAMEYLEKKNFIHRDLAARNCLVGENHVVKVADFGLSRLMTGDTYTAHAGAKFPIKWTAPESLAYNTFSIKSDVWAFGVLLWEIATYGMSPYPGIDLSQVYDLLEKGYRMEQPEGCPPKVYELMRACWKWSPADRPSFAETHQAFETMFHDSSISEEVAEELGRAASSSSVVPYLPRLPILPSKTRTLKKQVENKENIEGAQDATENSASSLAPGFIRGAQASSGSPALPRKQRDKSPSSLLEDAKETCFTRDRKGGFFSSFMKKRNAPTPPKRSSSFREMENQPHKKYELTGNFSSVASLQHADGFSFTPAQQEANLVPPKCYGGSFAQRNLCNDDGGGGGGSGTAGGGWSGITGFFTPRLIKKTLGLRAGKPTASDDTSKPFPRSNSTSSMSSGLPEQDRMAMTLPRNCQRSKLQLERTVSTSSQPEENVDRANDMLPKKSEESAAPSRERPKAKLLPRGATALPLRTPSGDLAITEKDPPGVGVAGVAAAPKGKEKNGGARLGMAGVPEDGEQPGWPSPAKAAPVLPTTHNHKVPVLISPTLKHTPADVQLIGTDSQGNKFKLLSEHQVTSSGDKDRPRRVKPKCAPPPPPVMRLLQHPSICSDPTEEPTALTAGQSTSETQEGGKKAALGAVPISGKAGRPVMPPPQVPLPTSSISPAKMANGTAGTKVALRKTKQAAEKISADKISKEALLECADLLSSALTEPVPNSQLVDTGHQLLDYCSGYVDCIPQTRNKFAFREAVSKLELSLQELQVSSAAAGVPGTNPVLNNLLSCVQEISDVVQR
Sequence of Ephrin type-A receptor 5 (Homo sapiens) (P54756 whole entry): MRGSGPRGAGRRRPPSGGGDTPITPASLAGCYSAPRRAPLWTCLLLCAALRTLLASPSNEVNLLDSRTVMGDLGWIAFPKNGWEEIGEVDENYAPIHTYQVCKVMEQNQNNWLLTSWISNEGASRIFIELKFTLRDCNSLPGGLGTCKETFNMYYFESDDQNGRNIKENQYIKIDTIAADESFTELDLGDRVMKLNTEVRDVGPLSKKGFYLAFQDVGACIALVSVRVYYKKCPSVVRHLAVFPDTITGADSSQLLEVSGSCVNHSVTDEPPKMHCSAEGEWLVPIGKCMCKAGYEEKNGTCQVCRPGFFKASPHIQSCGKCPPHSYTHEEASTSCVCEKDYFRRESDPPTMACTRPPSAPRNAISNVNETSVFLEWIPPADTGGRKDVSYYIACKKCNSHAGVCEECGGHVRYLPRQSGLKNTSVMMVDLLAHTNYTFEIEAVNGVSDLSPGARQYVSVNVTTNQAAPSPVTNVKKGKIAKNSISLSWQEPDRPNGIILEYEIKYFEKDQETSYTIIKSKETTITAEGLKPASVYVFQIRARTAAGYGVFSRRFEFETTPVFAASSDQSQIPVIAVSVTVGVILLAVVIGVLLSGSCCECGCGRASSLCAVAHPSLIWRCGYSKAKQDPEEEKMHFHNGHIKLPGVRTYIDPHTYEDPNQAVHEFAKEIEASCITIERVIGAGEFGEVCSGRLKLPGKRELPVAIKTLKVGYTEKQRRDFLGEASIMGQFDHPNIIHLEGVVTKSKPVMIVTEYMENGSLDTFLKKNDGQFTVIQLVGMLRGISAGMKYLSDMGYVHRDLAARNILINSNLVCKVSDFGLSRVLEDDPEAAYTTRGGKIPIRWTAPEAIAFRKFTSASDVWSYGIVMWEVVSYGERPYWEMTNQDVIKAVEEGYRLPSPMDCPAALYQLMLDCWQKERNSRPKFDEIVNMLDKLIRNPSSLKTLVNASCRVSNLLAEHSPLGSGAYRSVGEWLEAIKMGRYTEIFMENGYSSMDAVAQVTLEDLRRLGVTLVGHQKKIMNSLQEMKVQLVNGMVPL

Compound: N#Cc1cccc(-c2c[nH]c3ncnc(N4CCOCC4)c23)c1
% of inhibition [1]: -3%

Compound: CC(C)(O)[C@H](F)CN1Cc2cc(NC(=O)c3cnn4cccnc34)c(N3CCOCC3)cc2C1=O
dTM [2]: 2.4 K

Compound: COCC(=O)NC/C=C/c1ccc2ncnc(Nc3ccc(Oc4ccc(C)nc4)c(C)c3)c2c1 [CP-724714]
% of control [3]: 100%

% of inhibition [4]: 6.49%
Compound: CC[C@@H]1[C@H](F)C(=O)N[C@@H]1COc1nccc2cc(C(N)=O)c(OC)cc12 [ZIMLOVISERTIB]

Compound: COc1cc(N(C)c2ccnc3ccc(C(F)(F)F)cc23)cc(OC)c1OC
% binding [5]: 96%

Compound: CCC(=O)N1CCN(c2ccc(-n3c(=O)ccc4cnc5ccc(-c6cnc7ccccc7c6)cc5c43)cc2C(F)(F)F)CC1
% of control [6]: 99%

dTM [7]: < 2 K
Compound: CN(C)CCCOc1ccc(-c2cc(NCCCn3cccn3)nc(S(C)(=O)=O)n2)cc1

% of inhibition [8]: -54.8% | % of control [9]: 1.65%
Compound: Cn1cc(-n2cnc3c(NCc4nc5cc(Cl)c(Cl)cc5[nH]4)nc(N4CCOCC4)nc32)cn1
